Reference: BindingDB's records for doi:10.1016/j.bmcl.2009.09.018 (Sun Yat-Sen University, 2009)

The compounds below were run against T1, Polyphenol oxidase 2 (Agaricus bisporus, UniProt O42713) (assay: Inhibition of mushroom tyrosinase).
T1 sequence (O42713 whole entry): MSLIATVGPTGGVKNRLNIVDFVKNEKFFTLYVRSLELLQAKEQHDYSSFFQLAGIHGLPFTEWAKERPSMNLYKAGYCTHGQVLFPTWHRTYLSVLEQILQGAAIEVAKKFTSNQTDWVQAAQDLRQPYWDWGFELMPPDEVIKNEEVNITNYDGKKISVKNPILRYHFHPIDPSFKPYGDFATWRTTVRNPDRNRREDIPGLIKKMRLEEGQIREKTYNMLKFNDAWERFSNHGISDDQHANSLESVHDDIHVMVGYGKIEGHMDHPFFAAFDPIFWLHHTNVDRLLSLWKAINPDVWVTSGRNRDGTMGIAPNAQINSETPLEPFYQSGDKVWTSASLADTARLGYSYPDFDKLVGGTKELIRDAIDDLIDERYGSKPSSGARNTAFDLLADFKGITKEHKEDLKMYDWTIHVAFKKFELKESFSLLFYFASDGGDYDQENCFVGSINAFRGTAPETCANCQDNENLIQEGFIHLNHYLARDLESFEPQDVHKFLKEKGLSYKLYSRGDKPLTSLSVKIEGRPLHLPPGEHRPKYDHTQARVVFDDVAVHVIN

IC50, > 200 µM:
O=NCc1ccc(O[C@@H]2O[C@H](CO)[C@@H](O)[C@H](O)[C@H]2O)cc1
CC(=O)OC[C@H]1O[C@@H](Oc2ccc(CN=O)cc2)[C@H](OC(C)=O)[C@H](OC(C)=O)[C@@H]1OC(C)=O [(2R,3R,4R,5R,6S)-2-(acetoxymethyl)-6-(4-((hydroxyimino)methyl)phenoxy)tetrahydro-2H-pyran-3,4,5-triyl triacetate]
O=NCc1ccc(O[C@@H]2O[C@H](CO)[C@@H](O)[C@@H](O)[C@H]2O)cc1 [4-((2S,3R,4R,5S,6R)-3,4,5-trihydroxy-6-(hydroxymethyl)tetrahydro-2H-pyran-2-yloxy)benzaldehyde oxime]
O=NCc1ccc(O[C@@H]2OC[C@@H](OC(=O)c3ccccc3)[C@H](OC(=O)c3ccccc3)[C@H]2OC(=O)c2ccccc2)cc1 [(2S,3R,4S,5R)-2-(4-((hydroxyimino)methyl)phenoxy)tetrahydro-2H-pyran-3,4,5-triyl tribenzoate]
CC(=O)OC[C@H]1O[C@@H](Oc2ccc(CN=O)cc2)[C@H](OC(C)=O)[C@@H](OC(C)=O)[C@@H]1OC(C)=O
CC(=O)OC[C@H]1O[C@@H](O[C@H]2[C@H](OC(C)=O)[C@@H](OC(C)=O)[C@H](Oc3ccc(CN=O)cc3)O[C@@H]2COC(C)=O)[C@H](OC(C)=O)[C@@H](OC(C)=O)[C@H]1OC(C)=O [(2R,3S,4S,5R,6S)-2-(acetoxymethyl)-6-((2R,3R,4S,5R,6S)-4,5-diacetoxy-2-(acetoxymethyl)-6-(4-((hydroxyimino)methyl)phenoxy)tetrahydro-2H-pyran-3-yloxy)tetrahydro-2H-pyran-3,4,5-triyl triacetate]
O=NCc1ccc(O[C@@H]2O[C@H](COC(=O)c3ccccc3)[C@@H](OC(=O)c3ccccc3)[C@@H](OC(=O)c3ccccc3)[C@H]2OC(=O)c2ccccc2)cc1 [(2R,3R,4R,5R,6S)-2-(benzoyloxymethyl)-6-(4-((hydroxyimino)methyl)phenoxy)tetrahydro-2H-pyran-3,4,5-triyl tribenzoate]
CC(=O)OC[C@H]1O[C@@H](Oc2ccc(CN=O)cc2)[C@H](OC(C)=O)[C@@H](OC(C)=O)[C@H]1OC(C)=O [(2R,3S,4S,5R,6S)-2-(acetoxymethyl)-6-(4-((hydroxyimino)methyl)phenoxy)tetrahydro-2H-pyran-3,4,5-triyl triacetate]
